# Test results as given in BindingDB's records for doi:10.7270/Q25719FH (Srmlsc, 2007).
# Biological target: Multidrug resistance-associated protein 1 (Homo sapiens, UniProt P33527)
# Assay: doxorubicin EC50 increase in MRP-1 cells, dose response, cell-based, doxorubicin EC50 shift (AID 844)
# Chain of Multidrug resistance-associated protein 1 (P33527 whole entry): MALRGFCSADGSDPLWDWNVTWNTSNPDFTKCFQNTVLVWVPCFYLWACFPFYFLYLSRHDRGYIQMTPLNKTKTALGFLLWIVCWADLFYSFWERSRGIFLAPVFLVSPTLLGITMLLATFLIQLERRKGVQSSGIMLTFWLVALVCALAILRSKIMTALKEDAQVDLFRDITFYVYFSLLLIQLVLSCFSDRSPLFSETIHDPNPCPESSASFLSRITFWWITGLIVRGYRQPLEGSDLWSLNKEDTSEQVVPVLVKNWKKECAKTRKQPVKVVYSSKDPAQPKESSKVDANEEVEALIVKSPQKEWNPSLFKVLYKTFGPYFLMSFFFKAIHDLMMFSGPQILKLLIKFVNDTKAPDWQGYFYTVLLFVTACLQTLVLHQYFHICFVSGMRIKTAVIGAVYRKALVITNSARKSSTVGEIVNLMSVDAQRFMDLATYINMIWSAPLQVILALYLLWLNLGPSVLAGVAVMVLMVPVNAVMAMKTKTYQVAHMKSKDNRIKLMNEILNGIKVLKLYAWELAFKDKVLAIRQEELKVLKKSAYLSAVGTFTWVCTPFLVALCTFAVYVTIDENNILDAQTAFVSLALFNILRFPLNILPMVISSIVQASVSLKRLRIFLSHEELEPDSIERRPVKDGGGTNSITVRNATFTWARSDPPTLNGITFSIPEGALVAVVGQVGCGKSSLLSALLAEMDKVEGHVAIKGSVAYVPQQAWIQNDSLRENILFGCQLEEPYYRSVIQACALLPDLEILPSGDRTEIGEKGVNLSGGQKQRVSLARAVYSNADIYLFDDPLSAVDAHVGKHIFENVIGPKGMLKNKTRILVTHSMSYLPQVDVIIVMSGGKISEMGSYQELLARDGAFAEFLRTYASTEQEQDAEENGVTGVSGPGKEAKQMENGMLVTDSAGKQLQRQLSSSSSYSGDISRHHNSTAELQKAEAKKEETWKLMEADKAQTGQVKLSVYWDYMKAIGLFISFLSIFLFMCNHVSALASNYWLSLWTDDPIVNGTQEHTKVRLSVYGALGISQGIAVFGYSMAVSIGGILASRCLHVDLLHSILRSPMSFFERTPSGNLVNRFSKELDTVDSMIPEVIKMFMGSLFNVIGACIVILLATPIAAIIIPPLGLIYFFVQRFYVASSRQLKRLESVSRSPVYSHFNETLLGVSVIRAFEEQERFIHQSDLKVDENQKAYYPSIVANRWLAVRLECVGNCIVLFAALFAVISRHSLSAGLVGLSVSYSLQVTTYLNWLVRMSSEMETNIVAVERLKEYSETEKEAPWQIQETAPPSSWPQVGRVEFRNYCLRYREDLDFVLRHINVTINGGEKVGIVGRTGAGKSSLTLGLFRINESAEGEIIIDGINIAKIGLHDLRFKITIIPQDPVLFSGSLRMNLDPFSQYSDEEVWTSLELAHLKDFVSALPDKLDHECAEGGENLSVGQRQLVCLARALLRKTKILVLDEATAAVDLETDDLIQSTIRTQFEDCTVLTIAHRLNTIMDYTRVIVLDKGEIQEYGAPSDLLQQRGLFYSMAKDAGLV
row,EC50 [µM],Structure (SMILES)
1,3.78,O=C(Nc1nc(O)cs1)c1ccccc1 [MLS000106877]
2,3.39,O=C1/C(=C/c2nc3ccccc3[nH]2)SC(=S)N1c1ccc(F)cc1 [MLS000331487]
3,2.86,O=C(CC=NNC(=O)c1ccccc1)c1ccc(Br)cc1 [MLS000532545]
4,3.59,COc1ccc(NC(=O)Cc2c(O)n(-c3ccc(Cl)cc3)c(=S)n2NC(=O)c2cccc(F)c2)cc1 [MLS000590171]
5,4.29,COc1ccc(NC(=O)Cc2c(O)n(-c3ccc(F)cc3)c(=S)n2NC(=O)c2ccccc2)cc1 [MLS000592105]
6,6.47,"COc1cccc(C=NNC(=O)c2[nH][nH]c(=O)c2C)c1O [N'-[(E)-(5-methoxy-6-oxidanylidene-cyclohexa-2,4-dien-1-ylidene)methyl]-4-methyl-5-oxidanylidene-1,4-dihydropyrazole-3-carbohydrazide]"
7,1.6,"COc1cccc(C2C(C(=O)Nc3nc4ccccc4s3)=C(C)N=C3CC(C)(C)CC(=O)C32)c1OC (stereo unspecified) [N-(1,3-benzothiazol-2-yl)-4-(2,3-dimethoxyphenyl)-2,7,7-trimethyl-5-oxo-1,4,6,8-tetrahydroquinoline-3-carboxamide]"
8,4.99,Oc1csc(=S)n1N=C1CCCCCC1 [SMR000212426]
9,0.656,COc1ccc(CN=Nc2cc(C)nc(-n3nc(C)cc3C)n2)cc1 [SMR000212741]
10,7.24,COc1ccc(CN2C(=O)C(=CNc3ccc(OC)cc3)c3ccccc3C2=O)cc1 [SMR000259567]

# The next lines start with the molecule.
row,Structure (SMILES),EC50 [µM]
1,"O=C1Nc2ccc(F)cc2C12NC(Cc1ccc(O)cc1)c1c2c(O)n(-c2ccc(F)cc2)c1O [(3aR,6aS)-5'-fluoranyl-5-(4-fluorophenyl)-1-[(4-hydroxyphenyl)methyl]spiro[1,2,3a,6a-tetrahydropyrrolo[3,4-c]pyrrole-3,3'-1H-indole]-2',4,6-trione]",7.52
2,"Cc1cc(C)nc(N=NCc2cccc3ccccc23)n1 [(4,6-dimethylpyrimidin-2-yl)-(1-naphthylmethyleneamino)amine]",5.39
3,"COc1cc(C2NC(=O)N=C(C)C2C(=O)OCc2ccc(C)cc2)cc(OC)c1O (stereo unspecified) [(4-methylphenyl)methyl 4-(3,5-dimethoxy-4-oxidanyl-phenyl)-6-methyl-2-oxidanylidene-3,4-dihydro-1H-pyrimidine-5-carboxylate]",3.65
4,"Cc1ccc(C)c(C(=O)C2C(=O)C(=O)N(CCCn3ccnc3)C2c2ccncc2)c1 (stereo unspecified) [(4E)-4-[(2,5-dimethylphenyl)-hydroxy-methylene]-1-(3-imidazol-1-ylpropyl)-5-(4-pyridyl)pyrrolidine-2,3-quinone]",6.31
5,"Cc1cc(N=NCc2ccc(O)cc2O)nc(-n2nc(C)cc2C)n1 [(4E)-4-[[2-[2-(3,5-dimethylpyrazol-1-yl)-6-methyl-pyrimidin-4-yl]hydrazinyl]methylidene]-3-oxidanyl-cyclohexa-2,5-dien-1-one]",< 0.195
6,C=CCc1c(C)nc(-c2ccccc2)nc1N=NC(C)c1ccccc1 (stereo unspecified) [(5-allyl-6-methyl-2-phenyl-pyrimidin-4-yl)-(1-phenylethylideneamino)amine],2.34
7,C=CCc1c(C)nc(-c2ccccc2)nc1N=NC(C)c1ccc(N)cc1 (stereo unspecified) [(5-allyl-6-methyl-2-phenyl-pyrimidin-4-yl)-[1-(4-aminophenyl)ethylideneamino]amine],6.99
8,"CCCCCCN1C(=O)C(=Cc2c[nH]nc2-c2ccccc2)SC1=S [(5Z)-3-hexyl-5-[(5-phenyl-1H-pyrazol-4-yl)methylidene]-2-sulfanylidene-1,3-thiazolidin-4-one]",4.16
9,CCc1ccc(C(C)N=Nc2cc(Cl)nc(C)n2)cc1 (stereo unspecified) [(6-chloro-2-methyl-pyrimidin-4-yl)-[1-(4-ethylphenyl)ethylideneamino]amine],3.75
10,COC(=O)C(C=Nc1ccc(O)cc1)[N+](=O)[O-] (stereo unspecified) [(Z)-3-(4-hydroxyanilino)-2-nitro-2-propenoic acid methyl ester],1.12
11,CCN(C1CCCCC1)S(=O)(=O)c1cc(C)ccc1OC [MLS000028538],3.33
